Literature values as cited in PMC9324670, “Pd(II) Binding Strength of a Novel Ambidentate Dipeptide-Hydroxypyridinonate Ligand: A Solution Equilibrium Study” (Molecules, 2022).

How the values were obtained:
[1] = set-up: method as in doi:10.1016/S0020-1693(00)91874-7; conditions: fixed values used in the equilibrium models
[2] = pH-potentiometry

Row | logβ (stability constant of the complex in the Pd(II)–Cl^− system) [1] | pKOH(3) [2] | SMILES
1 | – | 9.76 | Cc1c(O)c(=O)ccn1C [H(L4), 3-hydroxy-1,2-dimethylpyridin-4(1H)-one]
2 | 4.47 | – | [Cl][Pd+] [[PdCl]^+]
3 | 7.76 | – | [Cl][Pd][Cl] [[PdCl2]]

Continued, compound first:

Row | SMILES | logβ (stability constant of the complex in the Pd(II)–Cl^− system) [1] | pKOH(3) [2]
4 | [Cl][Pd-2]([Cl])([Cl])[Cl] [[PdCl4]^2−] | 11.56 | –
5 | [Cl][Pd-]([Cl])[Cl] [[PdCl3]^−] | 10.17 | –
